Laboratory results as given in patent US20260125375A1 (Pfizer Inc., priority 2022, published 2026).

Key:
[1] = biological target: T1, C-CBL (46-435) (Homo sapiens, UniProt P22681); test: Surface Plasmon Resonance (SPR) assay, binding affinity and kinetics, C-CBL; details: SPR at 10° C., biotinylated C-CBL (46-435) on streptavidin chip; geometric mean; read-out: C-CBL SPR Kd (nM) GMean
T1 construct: N-terminal biotinylated WT CBL-B (36-427) and C-CBL (46-435) were captured on a streptavidin (SA) coated sensor chip
T1 sequence (P22681 46-435): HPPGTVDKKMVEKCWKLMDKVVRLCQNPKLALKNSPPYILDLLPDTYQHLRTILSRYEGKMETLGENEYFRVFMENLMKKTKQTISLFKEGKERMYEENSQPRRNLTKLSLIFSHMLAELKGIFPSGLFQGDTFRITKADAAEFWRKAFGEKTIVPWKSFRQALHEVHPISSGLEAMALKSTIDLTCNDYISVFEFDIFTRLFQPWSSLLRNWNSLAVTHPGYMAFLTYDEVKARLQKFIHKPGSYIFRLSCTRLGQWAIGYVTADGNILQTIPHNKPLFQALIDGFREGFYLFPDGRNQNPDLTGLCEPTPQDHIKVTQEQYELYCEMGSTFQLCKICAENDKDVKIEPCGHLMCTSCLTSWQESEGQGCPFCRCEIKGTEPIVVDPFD
In short: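 SPR kinetics at 10° C, run either single-cycle (0.001–1 μM, 3-fold, 6 points, 120 s on, >5400 s off) or multi-cycle (10 points, 2-fold, top 10 or 100 μM, 90 s on). Proteins were N-biotinylated CBL-B (36-427) and C-CBL (46-435) on SA surfaces, in pH 7.2 HEPES, 2% DMSO.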

[2] = biological target: T2, C-CBL (residues 46-435) (Homo sapiens, UniProt P22681); test: Ligand Displacement Assay (LDA), HTRF competitive binding against BODIPY-labeled fluorescent tracer, C-CBL; details: geometric mean of the number of tests, read-out: C-CBL Ki (nM) GMean
T2 construct: Purified CBL-B (residues 36-427) and C-CBL (residues 46-435) proteins from baculovirus-infected insect cells; made in house; host or cells: baculovirus-infected insect cells
T2 sequence (P22681 46-435): T1 sequence (P22681 46-435)
In short: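 Competition with a BODIPY fluorescent tracer was read by HTRF, each protein carrying an N-terminal biotinylated AviTag bound to Tb-streptavidin. Tracer KD values were set beforehand per protein; Ki derives from duplicate three-fold compound series ([…], 2% DMSO), averaged geometrically across tests.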

Row | Structure (SMILES) | Kd [1] [nM] | Ki [2] [nM]
1 | C[C@@H]1CCCN(Cc2nc(C(F)(F)F)cc3c(-c4cccc(C5(Cc6nncn6C)COC5)c4)n[nH]c23)C1 [Example C29, 7-{[(3R)-3-methylpiperidin-1-yl]methyl}-3-(3-{3-[(4-methyl-4H-1,2,4-triazol-3-yl)methyl]oxetan-3-yl}phenyl)-5-(trifluoromethyl)-1H-pyrazolo[3,4-c]pyridine] | 195 | 46.3
2 | C[C@H]1CCCN(Cc2nc(C(F)(F)F)cc3c(-c4cccc(C5(Cc6nncn6C)COC5)c4)n[nH]c23)C1 [Example C30, 7-{[(3S)-3-methylpiperidin-1-yl]methyl}-3-(3-{3-[(4-methyl-4H-1,2,4-triazol-3-yl)methyl]oxetan-3-yl}phenyl)-5-(trifluoromethyl)-1H-pyrazolo[3,4-c]pyridine] | 35.9 | 23.4
3 | Cn1cnnc1CC1(c2cccc(-c3n[nH]c4c(CN5CCCCC5)nc(C(F)(F)F)cc34)c2)COC1 [Example C33, 3-(3-{3-[(4-methyl-4H-1,2,4-triazol-3-yl)methyl]oxetan-3-yl}phenyl)-7-[(piperidin-1-yl)methyl]-5-(trifluoromethyl)-1H-pyrazolo[3,4-c]pyridine] | 107 | 111
4 | Cn1cnnc1CC1(c2cccc(-c3n[nH]c4c(CN[C@H]5CCC(F)(F)C5)nc(C(F)(F)F)cc34)c2)COC1 [Example C38, (1S)-3,3-difluoro-N-{[3-(3-{3-[(4-methyl-4H-1,2,4-triazol-3-yl)methyl]oxetan-3-yl}phenyl)-5-(trifluoromethyl)-1H-pyrazolo[3,4-c]pyridin-7-yl]methyl}cyclopentan-1-amine] | 70.5 | 32.9
5 | Cn1cnnc1[C@@H](c1cccc(-c2n[nH]c3c(CN[C@H]4CCOC4)nc(C(F)(F)F)cc23)c1)C1CCC1 [Example D1, (3S)—N-{[3-{3-[(R)-cyclobutyl(4-methyl-4H-1,2,4-triazol-3-yl)methyl]phenyl}-5-(trifluoromethyl)-1H-pyrazolo[3,4-c]pyridin-7-yl]methyl}oxolan-3-amine] | 208 | 210
6 | Cn1cnnc1[C@@H](c1cccc(-c2n[nH]c3c(CNC4CCCC4)nc(C(F)(F)F)cc23)c1)C1CCC1 [Example D4] | 106 | 54.8
7 | C[C@H](NC1CCC1)c1nc(C(F)(F)F)cc2c(-c3cccc(C4(Cc5nncn5C)COC4)c3)n[nH]c12 [Example F1, N-{(1S)-1-[3-(3-{3-[(4-methyl-4H-1,2,4-triazol-3-yl)methyl]oxetan-3-yl}phenyl)-5-(trifluoromethyl)-1H-pyrazolo[3,4-c]pyridin-7-yl]ethyl}cyclobutanamine] | 11.2 | 7.3
8 | C[C@H](N)c1nc(C(F)(F)F)cc2c(-c3cccc([C@H](c4nncn4C)C4CCC4)c3)n[nH]c12 [Example K12, (1S)-1-[3-{3-[(R)-cyclobutyl(4-methyl-4H-1,2,4-triazol-3-yl)methyl]phenyl}-5-(trifluoromethyl)-1H-pyrazolo[3,4-c]pyridin-7-yl]ethan-1-amine] | 209 | 136
